In patent US10654802B2, “Indoline derivatives and method for using and producing the same” (ARIZONA BOARD OF REGENTS ON BEHALF OF THE UNIVERSITY OF …, priority 2016, dated 2020):

Molecular target: T1, Nox4 (Homo sapiens, UniProt Q9NPH5)
T1 construct: expressed in transfected cells
T1 sequence (Q9NPH5 1-578): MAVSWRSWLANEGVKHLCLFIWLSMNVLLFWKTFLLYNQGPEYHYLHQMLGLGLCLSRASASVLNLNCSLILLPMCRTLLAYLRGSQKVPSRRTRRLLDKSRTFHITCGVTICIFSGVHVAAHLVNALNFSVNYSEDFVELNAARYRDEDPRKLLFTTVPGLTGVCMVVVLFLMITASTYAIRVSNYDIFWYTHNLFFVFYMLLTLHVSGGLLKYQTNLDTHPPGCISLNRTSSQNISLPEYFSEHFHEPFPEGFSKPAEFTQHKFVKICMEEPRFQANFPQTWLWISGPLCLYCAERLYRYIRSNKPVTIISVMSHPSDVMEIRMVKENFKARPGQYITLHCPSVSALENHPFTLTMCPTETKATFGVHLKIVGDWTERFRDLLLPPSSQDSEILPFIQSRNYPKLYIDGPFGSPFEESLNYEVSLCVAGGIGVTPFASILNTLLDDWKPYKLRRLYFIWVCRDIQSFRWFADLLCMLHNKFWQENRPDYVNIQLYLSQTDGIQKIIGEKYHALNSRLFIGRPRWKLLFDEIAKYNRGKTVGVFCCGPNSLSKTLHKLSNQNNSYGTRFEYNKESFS
T1 sequence (P13498 1-195 partner): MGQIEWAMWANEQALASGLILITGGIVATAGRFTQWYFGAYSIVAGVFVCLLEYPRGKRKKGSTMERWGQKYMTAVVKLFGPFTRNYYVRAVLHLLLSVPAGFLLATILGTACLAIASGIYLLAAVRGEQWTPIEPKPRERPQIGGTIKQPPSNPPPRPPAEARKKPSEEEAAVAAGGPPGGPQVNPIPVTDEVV
Assay: Inhibition of Nox4-dependent H2O2 production in HEK/Nox4 cells, Amplex Red assay
Assay type: cell-based
Details: 1 h, HEK/Nox4 cells, DMSO vehicle = 1.000, n = 3-10, read-out: H2O2 production relative to vehicle control, Mean; for remaining activity at 1 µM: 1 μM final concentration; for remaining activity at 5 µM: 5 μM final concentration; for remaining activity at 10 µM: 10 μM final concentration
Procedure: A high-throughput screening (HTS) assay was established for Nox4 inhibition, utilizing HEK293 cells that stably over-express Nox4 (HEK/Nox4 cells), which generate high levels of H2O2(Cheng G et al, Gene: 2001, p. 131-140). Over 30,000 compounds have been screened and medicinal chemistry efforts have led to the synthesis of numerous analogs and the identification of a chemically distinct series of selective Nox4 inhibitors. […] IC-50 was evaluated for UANox048 (FIG. 1B).
HEK cells stably transfected to overexpress Nox4 were treated with varying concentrations of test compounds, DPI (all-Nox inhibitor positive control), or DMSO (vehicle control) and incubated for 1 h (FIG. 1). (FIG. 1A) H2O2 presence was evaluated by Amplex Red assay. […] Values represent means±SEM; n=4. P values were calculated by student's two-tailed t test. *p<0.05, **p<0.01, *** p<0.001.

| Compound | remaining activity at 1 µM [%] | remaining activity at 5 µM [%] | remaining activity at 10 µM [%] |
| --- | --- | --- | --- |
| CC(CNC(=O)c1csc(-c2ccccc2)n1)N1CCc2ccccc21 (stereo not drawn) [UANOX055, N-(2-(indolin-1-yl)propyl)-2-phenylthiazole-4-carboxamide] | 90.2 | 90.8 | 86.8 |
| CC(CNC(=O)c1csc(-c2ccc(C(F)(F)F)cc2)n1)N1CCc2ccccc21 (stereo not drawn) [UANOX056, N-(2-(indolin-1-yl)propyl)-2-(4-(trifluoromethyl)phenyl)thiazole-4-carboxamide] | 95.9 | 88.4 | 83.4 |
| O=S(=O)(c1ccc(OC(F)(F)F)cc1)N1CCN(CCN2CCc3ccccc32)CC1 [UANOX062, 1-(2-(4-((4-(trifluoromethoxy)phenyl)sulfonyl)piperazin-1-yl)ethyl)indoline] | 88.7 | 75.8 | 66.4 |
| CCN(CC)S(=O)(=O)N1CCN(CCN2CCc3ccccc32)CC1 [UANOX063, N,N-diethyl-4-(2-(indolin-1-yl)ethyl)piperazine-1-sulfonamide] | 90.2 | 71.9 | 66.5 |
| O=S(=O)(c1ccc(F)cc1)N1CCN(CCN2CCc3ccccc32)CC1 [UANOX064, 1-(2-(4-((4-fluorophenyl)sulfonyl)piperazin-1-yl)ethyl)indoline] | 86.3 | 75.7 | 72.4 |
| CCN(CC)C(=O)N1CCN(CCN2CCc3ccccc32)CC1 [UANOX066] | 95.3 | 72.2 | 73.1 |
| Fc1ccccc1CN1CCN(CCN2CCc3ccccc32)CC1 [UANOX067, 1-(2-(4-(2-fluorobenzyl)piperazin-1-yl)ethyl)indoline] | 93.9 | 91.2 | 85.1 |
| CC(CNS(=O)(=O)c1ccc(Oc2ccc(C(F)(F)F)cn2)cc1)N1CCc2ccccc21 (stereo not drawn) [UANOX070, N-(2-(indolin-1-yl)propyl)-4-((5-(trifluoromethyl)pyridin-2-yl)oxy)benzenesulfonamide] | 91.4 | 77.9 | 69.3 |
| CC(CNS(=O)(=O)c1ccc(Oc2ccccc2)cc1)N1CCc2ccccc21 (stereo not drawn) [UANOX071, N-(2-(indolin-1-yl)propyl)-4-phenoxybenzenesulfonamide] | 90.8 | 85.6 | 77 |
| CC(CNS(=O)(=O)c1ccc(C#N)cc1)N1CCc2ccccc21 (stereo not drawn) [UANOX073] | 94.2 | 75.9 | 74.4 |
| O=S(=O)(NCCN1CCc2ccccc21)c1ccc(C(F)(F)F)cc1 [UANOX075, 4-trifluoromethyl-N-(2-(indolin-1-yl)ethyl)benzenesulfonamide] | 82.3 | 72.1 | 67.7 |
| O=S(=O)(NCCN1CCc2ccccc21)c1ccc(OC(F)(F)F)cc1 [UANOX076, 4-trifluoromethoxy-N-(2-(indolin-1-yl)ethyl)benzenesulfonamide] | 83.2 | 72 | 66.2 |
| O=S(=O)(NCCN1CCc2ccccc21)c1ccc(Oc2ccccc2)cc1 [UANOX079, N-(2-(indolin-1-yl)ethyl)-4-phenoxybenzenesulfonamide] | 89.6 | 65.1 | 58.4 |
| O=S(=O)(NCCN1CCc2ccccc21)c1ccc(Oc2ccc(C(F)(F)F)cn2)cc1 [UANOX080, N-(2-(indolin-1-yl)ethyl)-4-((5-(trifluoromethyl)pyridin-2-yl)oxy)benzenesulfonamide] | 85.5 | 60.1 | 49.1 |
| O=S(=O)(NCCN1CCc2ccccc21)c1ccc(F)c(F)c1 [UANOX081, 3,4-difluoro-N-(2-(indolin-1-yl)ethyl)benzenesulfonamide] | 88.8 | 67 | 55.8 |
| N#Cc1ccc(S(=O)(=O)NCCN2CCc3ccccc32)cc1 [UANOX082, 4-cyano-N-(2-(indolin-1-yl)ethyl)benzenesulfonamide] | 90.8 | 70.7 | 60.6 |
| CCN(CC)S(=O)(=O)NCC(C)(C)N1CCc2ccccc21 [UANOX083, N—(N,N-diethylaminosulfonyl)-2-(indolin-1-yl)-2-methylpropane-1-amine] | 82.3 | 73 | 66.5 |
| CC(C)(CNS(=O)(=O)c1ccc(C(F)(F)F)cc1)N1CCc2ccccc21 [UANOX084, N-(2-(indolin-1-yl)-2-methylpropyl)-4-(trifluoromethyl)benzenesulfonamide] | 90.3 | 77.5 | 67.5 |
| CC(C)(CNS(=O)(=O)c1ccc(Oc2ccccc2)cc1)N1CCc2ccccc21 [UANOX085, N-(2-(indolin-1-yl)-2-methylpropyl)-4-phenoxybenzenesulfonamide] | 92.7 | 83.5 | 73.6 |
| CC(C)(CNS(=O)(=O)c1ccc(F)cc1)N1CCc2ccccc21 [UANOX086, 4-fluoro-N-(2-(indolin-1-yl)-2-methylpropyl)benzenesulfonamide] | 90.7 | 81.6 | 71.4 |
| CC(C)(CNS(=O)(=O)c1ccc(F)c(F)c1)N1CCc2ccccc21 [UANOX087, 3,4-difluoro-N-(2-(indolin-1-yl)-2-methylpropyl)benzenesulfonamide] | 99.7 | 88.3 | 74.1 |
| CC(C)(CNS(=O)(=O)c1ccc(Oc2ccc(C(F)(F)F)cn2)cc1)N1CCc2ccccc21 [UANOX088] | 102 | 90.3 | 79.6 |
| COc1ccc(S(=O)(=O)NCC(C)(C)N2CCc3ccccc32)cc1 [UANOX089, N-(2-(indolin-1-yl)-2-methylpropyl)-4-methoxybenzenesulfonamide] | 101 | 83.6 | 70.1 |
| CC(C)(CNS(=O)(=O)c1ccc(OC(F)(F)F)cc1)N1CCc2ccccc21 [UANOX090, N-(2-(indolin-1-yl)-2-methylpropyl)-4-(trifluoromethoxy)benzenesulfonamide] | 104 | 88.7 | 74.5 |
| O=C(CN1CCN(c2ncccn2)CC1)N1CCc2ccccc21 [UANOX0192, 1-(indolin-1-yl)-2-(4-(pyrimidin-2-yl)piperazin-1-yl)ethan-1-one] | 96.4 | 111 | 108 |
| COc1cccc(-c2ccc3c(c2)CCN3C(C)CNS(=O)(=O)N2CCN(C)CC2)c1 (stereo not drawn) [UANOX0254, N-(2-(5-(3-methoxyphenyl)indolin-1-yl)propyl)-4-methylpiperazine-1-sulfonamide] | 87.8 | 88 | 76.3 |
